Tests used:
[1] = target: T1, mitochondrial glycerophosphate dehydrogenase (mGPD) (Rattus norvegicus, UniProt P35571); experiment: DCIP reduction assay; format: biochemical
T1 sequence (P35571 43-727): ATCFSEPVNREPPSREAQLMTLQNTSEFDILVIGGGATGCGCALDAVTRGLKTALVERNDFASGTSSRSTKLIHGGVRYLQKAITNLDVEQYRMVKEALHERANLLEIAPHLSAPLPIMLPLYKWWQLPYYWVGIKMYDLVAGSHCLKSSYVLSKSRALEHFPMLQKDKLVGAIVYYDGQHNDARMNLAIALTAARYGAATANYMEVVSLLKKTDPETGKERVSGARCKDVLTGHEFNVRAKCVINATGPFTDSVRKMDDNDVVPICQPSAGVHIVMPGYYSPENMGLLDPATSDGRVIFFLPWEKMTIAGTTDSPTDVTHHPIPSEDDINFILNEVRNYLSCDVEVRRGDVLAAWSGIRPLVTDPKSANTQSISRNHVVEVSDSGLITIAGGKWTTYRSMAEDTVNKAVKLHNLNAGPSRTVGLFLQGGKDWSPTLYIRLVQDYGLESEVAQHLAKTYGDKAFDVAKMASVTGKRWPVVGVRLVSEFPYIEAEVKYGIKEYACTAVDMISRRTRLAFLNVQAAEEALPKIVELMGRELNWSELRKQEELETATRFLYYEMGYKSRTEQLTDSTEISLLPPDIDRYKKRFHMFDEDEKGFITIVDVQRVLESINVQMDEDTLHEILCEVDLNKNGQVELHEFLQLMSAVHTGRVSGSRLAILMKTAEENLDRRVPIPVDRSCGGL

[2] = target: T2, mitochondrial glycerophosphate dehydrogenase (mGPD) (Homo sapiens, UniProt P43304); experiment: DCIP reduction assay; format: biochemical
T2 sequence (P43304 43-727): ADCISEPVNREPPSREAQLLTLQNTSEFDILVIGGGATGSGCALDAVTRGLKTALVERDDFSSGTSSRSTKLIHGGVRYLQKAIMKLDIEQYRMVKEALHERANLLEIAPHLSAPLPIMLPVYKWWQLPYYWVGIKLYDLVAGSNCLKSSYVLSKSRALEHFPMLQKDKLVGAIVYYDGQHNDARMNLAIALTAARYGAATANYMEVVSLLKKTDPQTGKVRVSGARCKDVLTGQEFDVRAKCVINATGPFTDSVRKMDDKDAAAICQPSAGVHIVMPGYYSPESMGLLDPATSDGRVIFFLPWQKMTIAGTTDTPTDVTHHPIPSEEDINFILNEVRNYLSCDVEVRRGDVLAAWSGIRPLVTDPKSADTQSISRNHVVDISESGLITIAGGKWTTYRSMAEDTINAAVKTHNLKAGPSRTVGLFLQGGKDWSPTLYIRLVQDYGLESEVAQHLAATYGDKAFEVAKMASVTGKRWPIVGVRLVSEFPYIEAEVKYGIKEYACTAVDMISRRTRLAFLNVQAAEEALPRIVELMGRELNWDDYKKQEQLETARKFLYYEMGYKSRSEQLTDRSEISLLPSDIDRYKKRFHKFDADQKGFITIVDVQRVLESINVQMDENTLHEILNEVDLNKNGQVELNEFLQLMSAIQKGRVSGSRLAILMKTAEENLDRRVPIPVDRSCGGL

- Ki [1]: ~38 µM
- Ki [2]: ~55 µM
Structure (SMILES): CN(C)C(=N)N=C(N)N [metformin]
